Earlier results on two molecules are cited in patent US10314832B2, “β- and γ-diketones and γ-hydroxyketones as Wnt/β-catenin signaling pathway activators” (Samumed, LLC, priority 2010, dated 2019).

The conditions of series [1]: topical solution, patients with age-related hair loss; cited from earlier work.
Series [2] concerns dedifferentiated Müller glia. To be noted: photoreceptor-damaged retina; cited from earlier work.

As to `Nc1cc(N2CCCCC2)nc(N)[n+]1[O-]` [minoxidil], the “patients with moderate regrowth of hair” value in series [1] is reported as “less than 40%”.

B1: Wnt3a: Wnt ligand protein; soluble peptide agonist of LRP5 and Fzd co-receptors (protein, UniProt P56704 19-352, looked up)
Protein Wnt-3a: SYPIWWSLAVGPQYSSLGSQPILCASIPGLVPKQLRFCRNYVEIMPSVAEGIKIGIQECQHQFRGRRWNCTTVHDSLAIFGPVLDKATRESAFVHAIASAGVAFAVTRSCAEGTAAICGCSSRHQGSPGKGWKWGGCSEDIEFGGMVSREFADARENRPDARSAMNRHNNEAGRQAIASHMHLKCKCHGLSGSCEVKTCWWSQPDFRAIGDFLKDKYDSASEMVVEKHRESRGWVETLRPRYTYFKVPTERDLVYYEASPNFCEPNPETGSFGTRDRTCNVSSHGIDGCDLLCCGRGHNARAERRREKCRCVFHWCCYVSCQECTRVYDVHTCK
With B1, the “increase in proliferation of dedifferentiated Müller glia” value in series [2] is above 20 fold.
